In brackets after ≈: the same amount, converted by molar mass. Read-outs that look alike come from different tables or passages of the source.
Legend:
HIV-1(IIIB) (WT) = assay: microbe, parasite or virus in culture; type: cell-based; conditions: Human immunodeficiency virus 1, IIIB, CCRF-CEM
Method in brief: (§1)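 CEM cells at 250,000 cells/ml were infected with HIV-1 at 100 CCID50 per ml, then mixed with serial dilutions of test compound. After 4 days at 37° C., cultures were scored for syncytium formation.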

HIV-1/I(0.1) 103-Asn = assay: Sensitivity of mutant HIV-1 strain in CEM cell cultures; type: cell-based; conditions: Human immunodeficiency virus 1, CCRF-CEM; Table 5; read-out: EC50
Method in brief: as §1

HIV-1/II(0.1) 100-Ile = assay: as above; type: cell-based; conditions: Human immunodeficiency virus 1, CCRF-CEM; Table 5; read-out: EC50
Method in brief: as §1

HIV-1/III(0.1) 103-Asn = assay: as above; type: cell-based; conditions: Human immunodeficiency virus 1, CCRF-CEM; Table 5; read-out: EC50
Method in brief: as §1

HIV-1/IV(0.1) 103-Thr = assay: as above; type: cell-based; conditions: Human immunodeficiency virus 1, CCRF-CEM; Table 5; read-out: EC50
Method in brief: as §1

HIV-1/Nev (106-Ala) = assay: as above; type: cell-based; conditions: Human immunodeficiency virus 1, CCRF-CEM; CEM cells, Table 1; read-out: 50% Effective Concentration
Method in brief: as §1

HIV-1/Pyr (181-Cys) = assay: as above; type: cell-based; conditions: Human immunodeficiency virus 1, CCRF-CEM; CEM cells, Table 1; read-out: 50% Effective Concentration
Method in brief: as §1

[1] = tested on: HIV-1/TIBO R82150 (100-Ile); assay: as above; type: cell-based; conditions: Human immunodeficiency virus 1, CCRF-CEM; CEM cells, Table 1; read-out: 50% Effective Concentration
Method in brief: as §1

[2] = tested on: HIV-1/TIBO R82913 (103-Asn); assay: as above; type: cell-based; conditions: Human immunodeficiency virus 1, CCRF-CEM; CEM cells, Table 1; read-out: 50% Effective Concentration
Method in brief: as §1

[3] = tested on: HIV-1/TSAO-m^3 T (138-Lys); assay: as above; type: cell-based; conditions: Human immunodeficiency virus 1, CCRF-CEM; CEM cells, Table 1; read-out: 50% Effective Concentration
Method in brief: as §1

[4] = tested on: HIV-1/V(0.1) 101-Ile + 141-Glu; assay: as above; type: cell-based; conditions: Human immunodeficiency virus 1, CCRF-CEM; Table 5; read-out: EC50
Method in brief: as §1

HIV-1/V(0.5) 103-Asn = assay: as above; type: cell-based; conditions: Human immunodeficiency virus 1, CCRF-CEM; Table 5; read-out: EC50
Method in brief: as §1

HIV-1 RT (WT) = HIV-1 RT (WT) (Human immunodeficiency virus type 1 group M subtype B, UniProt P03366); assay: biochemical
Method in brief: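 Inhibition read as reduced incorporation of [2,8-³H]dGTP (2.95 μM) into acid-precipitable product on a poly(C).oligo(dG) template/primer (0.1 mM). Recombinant RT, test compounds in 5-fold dilutions; 30 min, 37° C, pH 7.8 Tris buffer with 5 mM Mg2+, 150 mM KCl.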

HIV-1(IIIB) = assay: Knock-out concentrations: breakthrough of HIV-1(IIIB)-induced cytopathicity in CEM cell cultures; type: cell-based; conditions: for activity at 0.1 µg/mL / activity at 0.5 µg/mL / activity at 2.5 µg/mL: Human immunodeficiency virus 1, IIIB, CCRF-CEM, read-out: HIV-1-induced cytopathicity in cell culture; for activity at 0.1 µg/mL: 0.1 μg/ml; for activity at 0.5 µg/mL: 0.5 μg/ml; for activity at 2.5 µg/mL: 2.5 μg/ml
Method in brief: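 CEM cells in RPMI 1640 with 10% FBS infected with HIV-1(IIIB) at ~1000× CCID50, subcultured every 3–4 days into fresh uninfected cells with drug held constant for 10 subcultivations (35 days), then ≥5 drug-free passages. Breakthrough scored by syncytium formation. Combinations used the two lowest single-drug starting concentrations.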

[5] = 936 h, day 39 post infection, compound absent from day 35
[6] = 1008 h, day 42 post infection, compound absent from day 35
[7] = 1104 h, day 46 post infection, compound absent from day 35
[8] = 1176 h, day 49 post infection, compound absent from day 35
[9] = 1272 h, day 53 post infection, compound absent from day 35

`Cc1occc1C(=S)Nc1ccc(Cl)c(C(=O)OC2CCCC2)c1` [Compound IV] showed an EC50 (HIV-1(IIIB) (WT); CEM cells, Table 1, read-out: 50% Effective Concentration) of 5 ng/mL (≈ 0.0137 µM), an EC50 (HIV-1(IIIB) (WT); HIV-1 (III8), Table 5, read-out: EC50) of 5 ng/mL (≈ 0.0137 µM) and an IC50 (HIV-1(IIIB) (WT); range stated for Compounds I-V together, read-out: 50% inhibitory concentration, HIV-1(IIIB) replication in CEM cells) of 0.004 to 0.05 µg/mL (≈ 0.011 to 0.137 µM). The EC50 (HIV-1/I(0.1) 103-Asn) was 0.2 µg/mL (≈ 0.55 µM), the EC50 (HIV-1/II(0.1) 100-Ile) was 0.4 µg/mL (≈ 1.1 µM) and the EC50 (HIV-1/III(0.1) 103-Asn) was 0.14 µg/mL (≈ 0.385 µM). It also gave an EC50 (HIV-1/IV(0.1) 103-Thr) of 0.53 µg/mL (≈ 1.46 µM), an EC50 (HIV-1/Nev (106-Ala)) of 0.04 µg/mL (≈ 0.11 µM) and an EC50 (HIV-1/Pyr (181-Cys)) of 0.045 µg/mL (≈ 0.124 µM). It also gave an EC50 [1] of 0.17 µg/mL (≈ 0.467 µM), an EC50 [2] of 0.7 µg/mL (≈ 1.92 µM) and an EC50 [3] of 0.035 µg/mL (≈ 0.0962 µM). For the same compound, the EC50 [4] was 0.11 µg/mL (≈ 0.302 µM), the EC50 (HIV-1/V(0.5) 103-Asn) was 0.65 µg/mL (≈ 1.79 µM) and the IC50 (HIV-1 RT (WT); range stated for the compounds together, poly(C).oligo(dG), 2.95 μM [2,8-3H]dGTP, read-out: IC50 on recombinant HIV-1 RT) was 49.5 to 212 nM. The IC50 (HIV-1 RT (WT); substrate [2,8-3H]dGTP 2.95 μM, template poly(rC)oligo(dG), read-out: IC50, anti-HIV-1 RT (WT) activity (converted)) was 49.5 nM, the “prevention of virus breakthrough, fold more efficient than BHAP” value (HIV-1(IIIB)) was “at least 5 fold” and the “prevention of virus breakthrough, fold more efficient than nevirapine” value (HIV-1(IIIB)) was ≥ 25 fold. It also gave an activity at 0.1 µg/mL (HIV-1(IIIB); 96 h, day 4 post infection) of 0%, an activity at 0.5 µg/mL (HIV-1(IIIB); 96 h, day 4 post infection) of 0% and an activity at 2.5 µg/mL (HIV-1(IIIB); 96 h, day 4 post infection) of 0%. The activity at 0.1 µg/mL (HIV-1(IIIB); 192 h, day 8 post infection) was 0%, the activity at 0.5 µg/mL (HIV-1(IIIB); 192 h, day 8 post infection) was 0% and the activity at 2.5 µg/mL (HIV-1(IIIB); 192 h, day 8 post infection) was 0%. For the same compound, the activity at 0.1 µg/mL (HIV-1(IIIB); 264 h, day 11 post infection) was 0%, the activity at 0.5 µg/mL (HIV-1(IIIB); 264 h, day 11 post infection) was 0% and the activity at 2.5 µg/mL (HIV-1(IIIB); 264 h, day 11 post infection) was 0%. The activity at 0.1 µg/mL (HIV-1(IIIB); 336 h, day 14 post infection) was 6.2%, the activity at 0.5 µg/mL (HIV-1(IIIB); 336 h, day 14 post infection) was 0% and the activity at 2.5 µg/mL (HIV-1(IIIB); 336 h, day 14 post infection) was 0%. The activity at 0.1 µg/mL (HIV-1(IIIB); 408 h, day 17 post infection) was 25%, the activity at 0.5 µg/mL (HIV-1(IIIB); 408 h, day 17 post infection) was 0% and the activity at 2.5 µg/mL (HIV-1(IIIB); 408 h, day 17 post infection) was 0%. It also gave an activity at 0.1 µg/mL (HIV-1(IIIB); 504 h, day 21 post infection) of 87.5%, an activity at 0.5 µg/mL (HIV-1(IIIB); 504 h, day 21 post infection) of 0% and an activity at 2.5 µg/mL (HIV-1(IIIB); 504 h, day 21 post infection) of 0%. It also gave an activity at 0.1 µg/mL (HIV-1(IIIB); 600 h, day 25 post infection) of 100%, an activity at 0.5 µg/mL (HIV-1(IIIB); 600 h, day 25 post infection) of 0% and an activity at 2.5 µg/mL (HIV-1(IIIB); 600 h, day 25 post infection) of 0%. For the same compound, the activity at 0.1 µg/mL (HIV-1(IIIB); 672 h, day 28 post infection) was 100%, the activity at 0.5 µg/mL (HIV-1(IIIB); 672 h, day 28 post infection) was 0% and the activity at 2.5 µg/mL (HIV-1(IIIB); 672 h, day 28 post infection) was 0%. The activity at 0.1 µg/mL (HIV-1(IIIB); 768 h, day 32 post infection) was 100%, the activity at 0.5 µg/mL (HIV-1(IIIB); 768 h, day 32 post infection) was 0% and the activity at 2.5 µg/mL (HIV-1(IIIB); 768 h, day 32 post infection) was 0%. It also gave an activity at 0.1 µg/mL (HIV-1(IIIB); 840 h, day 35 post infection) of 100%, an activity at 0.5 µg/mL (HIV-1(IIIB); 840 h, day 35 post infection) of 0% and an activity at 2.5 µg/mL (HIV-1(IIIB); 840 h, day 35 post infection) of 0%. The activity at 0.1 µg/mL (HIV-1(IIIB); [5]) was 100%, the activity at 0.5 µg/mL (HIV-1(IIIB); [5]) was 0% and the activity at 2.5 µg/mL (HIV-1(IIIB); [5]) was 0%. It also gave an activity at 0.1 µg/mL (HIV-1(IIIB); [6]) of 100%, an activity at 0.5 µg/mL (HIV-1(IIIB); [6]) of 0% and an activity at 2.5 µg/mL (HIV-1(IIIB); [6]) of 0%. It also gave an activity at 0.1 µg/mL (HIV-1(IIIB); [7]) of 100%, an activity at 0.5 µg/mL (HIV-1(IIIB); [7]) of 0% and an activity at 2.5 µg/mL (HIV-1(IIIB); [7]) of 0%. For the same compound, the activity at 0.1 µg/mL (HIV-1(IIIB); [8]) was 100%, the activity at 0.5 µg/mL (HIV-1(IIIB); [8]) was 0% and the activity at 2.5 µg/mL (HIV-1(IIIB); [8]) was 0%. For the same compound, the activity at 0.1 µg/mL (HIV-1(IIIB); [9]) was 100%, the activity at 0.5 µg/mL (HIV-1(IIIB); [9]) was 0% and the activity at 2.5 µg/mL (HIV-1(IIIB); [9]) was 0%. For the same compound, the “concentration at which virus emerged (virus breakthrough)” value (HIV-1(IIIB); tested at 0.1, 0.5 and 2.5 μg/ml, 35 days) was 0.1 µg/mL.

From patent US5968910A, “Compositions containing two or three inhibitors of different HIV reverse transcriptases” (priority 1994, dated 1999)
